From PMC12434536, “Radiosynthesis and Preclinical Evaluation of a Carbon-11 Labeled Phosphodiesterase 7 Inhibitor for PET Neuroimaging” (ACS Medicinal Chemistry Letters, 2025)

How the values were obtained:
[1] = tested on: CYP2C9, CYP2C19, CYP2D6, CYP3A4; assay: CYP450 isoform inhibition profiling, other isoforms; type: in vitro ADME; details: all isoforms except CYP1A2; read-out: IC50 against the other CYP450 isoforms
Protocol: (§1) page 5: protein-ligand complex were saved and were then loaded into Schrödinger Maestro to generate the ligand interaction plot. In vitro inhibitory assay to PDE7 of compound 27 and selectivity to other PDEs Functional activity of target compound 27 for inhibition of PDE7A activity and the selectivity over other PDE isozymes ([…], and 10A) were evaluated by Eurofins Panlabs Discovery Services and Reaction Biology Corp., respectively. Human recombinant enzymes were used for the assays. The inhibitory assays were performed and calculated in duplicate at 3 μM. If the inhibition percentage was less […] duplicate. CYP450 isoform metabolism and in vitro safety profiling The inhibitory constant of compound 26 toward cytochrome P450-dependent metabolic pathways was determined for individual CYP isoform (CYP1A2, CYP2C9, CYP2C19, CYP2D6, and CYP3A4). Reference inhibitors were included as positive controls. A 10 μM solution of compound 27 was used for initial screening. If the inhibition percentage was less than 50%, the experiment was stopped. […] gradient concentrations of compound 27 were used for IC 50 determination. The P450 reactions were detected at Ext/Em: 405 nm/460 nm (530 nm/605 nm for CYP2C9) in a S3 page 6: […] IC50 curves were plotted using a non-linear regression model with Graphpad Prism 6. […] Plasma and brain samples were quantified by LC-MS/MS method. […]

[2] = tested on: other PDE isozymes (PDE1A/B/C, 2A, 3A/B, 4A/B/C/D, 5A, 8A, 9A, and 10A); assay: Selectivity over other PDE isozymes; type: biochemical; details: at 3 μM of compound 27; human recombinant enzymes
Protocol: protein-ligand complex were saved and were then loaded into Schrödinger Maestro to generate the ligand interaction plot.
In vitro inhibitory assay to PDE7 of compound 27 and selectivity to other PDEs Functional activity of target compound 27 for inhibition of PDE7A activity and the selectivity over other PDE isozymes (PDE1A/B/C, 2A, 3A/B, 4A/B/C/D, 5A, 8A, 9A, and 10A) were evaluated by Eurofins Panlabs Discovery Services and Reaction Biology Corp., respectively. Human recombinant enzymes were used for the assays. The inhibitory assays were performed and calculated in duplicate at 3 µM. If the inhibition percentage was less than 50%, the assay for half-maximal inhibitory concentration (IC50) value was conducted in […]
CYP450 isoform metabolism and in vitro safety profiling
The inhibitory constant of compound 26 toward cytochrome P450-dependent metabolic pathways was determined for individual CYP isoform (CYP1A2, CYP2C9, CYP2C19, CYP2D6, and CYP3A4). Reference inhibitors were included as positive controls. A 10 µM solution of compound 27 was used for initial screening. If the inhibition percentage was less than 50%, the experiment was stopped. If the inhibition potency was greater than 50%, the gradient concentrations of compound 27 were used for IC 50 determination. The P450 reactions were detected at Ext/Em: 405 nm/460 nm (530 nm/605 nm for CYP2C9) in a […]

CYP1A2 = target: T1, CYP1A2 (Homo sapiens, UniProt P05177); assay: CYP450 isoform inhibition profiling, CYP1A2; type: in vitro ADME
T1 sequence (P05177 1-516): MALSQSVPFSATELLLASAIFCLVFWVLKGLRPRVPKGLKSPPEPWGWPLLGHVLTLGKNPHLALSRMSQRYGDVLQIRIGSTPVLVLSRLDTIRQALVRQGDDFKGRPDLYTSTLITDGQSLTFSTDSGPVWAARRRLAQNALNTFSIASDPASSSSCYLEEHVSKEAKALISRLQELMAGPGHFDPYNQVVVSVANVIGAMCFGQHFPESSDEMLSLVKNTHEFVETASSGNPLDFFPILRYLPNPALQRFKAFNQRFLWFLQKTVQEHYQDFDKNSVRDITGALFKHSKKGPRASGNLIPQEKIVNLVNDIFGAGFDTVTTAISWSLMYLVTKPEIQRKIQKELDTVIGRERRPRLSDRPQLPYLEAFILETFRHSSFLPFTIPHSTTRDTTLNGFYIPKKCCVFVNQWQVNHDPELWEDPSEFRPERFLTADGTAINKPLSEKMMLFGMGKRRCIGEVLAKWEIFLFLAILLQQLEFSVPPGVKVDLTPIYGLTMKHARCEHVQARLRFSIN
Protocol: as §1

PDE7 [3] = assay: PET imaging in rats (baseline and self-blocking); type: in vivo, Sprague-Dawley rats; details: SD rats, self-blocking, 1 mg/kg
Protocol: page 10: All animal experiments were approved by the Institutional Animal Care and Use Committee of Massachusetts General Hospital or the National Institute of Radiological Sciences (Japan). C57BL/6 mice (female; 8 weeks, 20-25 g) and Sprague-Dawley rats (male; 8-9 weeks; 264-310 g) were kept on a 12 h light/12 h dark cycle and were allowed food and water ad libitum. Rodent PET scans were carried out using a […] (Sofie Biosciences, Culver, CA, USA) or a Siemens Inveon PET/CT system. Animals were kept under anesthesia using 1-2% (v/v) isoflurane in oxygen during the scan. The radiotracer (1.85 MBq for mice; 42-53 MBq for rats) was injected into the tail vein via a preinstalled catheter. A dynamic scan in 3D list mode was acquired for 60 min. The PET dynamic images were reconstructed using the manufacturer's acquisition software. Volumes of interest, including whole brain, cortex, striatum, hippocampus, thalamus and cerebellum were placed using AMIDE / PMOD software. The radioactivity was decay-corrected and expressed as standardized uptake value (SUV = radioactivity per mL tissue / injected radioactivity × bodyweight). S8

PDE7 [4] = assay: PET imaging in nonhuman primates (baseline and self-blocking); type: in vivo, Cynomolgus monkeys; details: monkeys, self-blocking, 0.4 or 1 mg/kg
Protocol: Cynomolgus monkeys used for PET/CT scan were deprived of food for 12h but allowed to drink water at any time. Animals (Male, bodyweight 5.0-5.2 kg) were anesthetized with ketamine, placed into the scanner (GE Discovery Elite 690, USA), and maintained with 2% isoflurane and 98% oxygen. A solution of [11C]27 (6.24–9.84 mCi) was injected into the monkey via a venous catheter, followed by a dynamic PET scan. For the blocking study, the blocking reagent reference compound 27 (0.4 or 1.0 mg/kg, iv) was used, followed by the injection of [11C]27. Time-activity curves of each brain region were extracted from the corresponding VOIs and brain uptake was decay-corrected and expressed as SUV. biodistribution studies in miceWhole-body ex vivo

**Q.** For `COc1ccc(Cl)c2c1C1(CCCCC1)NC(=O)N2` [Compound 27], which IC50 at 80 min [1] is on record?
**A.** ≥ 10 µM

**Q.** What about the “% inhibition of other PDE isomers” value [2] of the same compound?
**A.** < 50%

**Q.** What about the IC50 (CYP1A2) of the same compound?
**A.** 4.4 µM

**Q.** What about the “effect of pretreatment on [11C]27 brain uptake” value (PDE7 [3]) of the same compound?
**A.** marginally reduced brain uptake

**Q.** And the “effect of pretreatment on [11C]27 uptake in all assessed brain regions” value (PDE7 [4])?
**A.** moderately reduced
